This test addresses T1, IRAK4 (Homo sapiens, UniProt Q9NWZ3).
T1 construct: C-terminal HiBiT-tagged Jurkat cells (polyclonal cell line or clone 8D5); endogenous in cells; host or cells: Jurkat cells (polyclonal cell line or clone 8D5), HiBiT-tagged
T1 sequence (Q9NWZ3 1-460): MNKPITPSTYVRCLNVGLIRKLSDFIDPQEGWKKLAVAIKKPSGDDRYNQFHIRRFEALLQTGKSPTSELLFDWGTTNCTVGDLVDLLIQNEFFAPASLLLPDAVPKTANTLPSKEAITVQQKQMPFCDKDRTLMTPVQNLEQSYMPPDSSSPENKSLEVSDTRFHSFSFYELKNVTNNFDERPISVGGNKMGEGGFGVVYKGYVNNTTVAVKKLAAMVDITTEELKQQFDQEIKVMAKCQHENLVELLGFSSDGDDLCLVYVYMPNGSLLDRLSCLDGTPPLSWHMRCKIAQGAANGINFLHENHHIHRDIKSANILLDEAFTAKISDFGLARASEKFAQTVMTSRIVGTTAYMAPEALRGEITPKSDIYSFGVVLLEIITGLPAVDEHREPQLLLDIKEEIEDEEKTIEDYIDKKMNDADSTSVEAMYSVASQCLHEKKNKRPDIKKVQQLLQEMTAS
As to the kind of experiment: IRAK4 Degradation HiBit Assay. The test is classed as cell-based. The following applies: C-terminal HiBiT-tagged Jurkat cells, 4 hrs incubation; for DC50: % IRAK4 remaining, four-parameter fit (IC50 used as DC50); for Dmax: from fit of % IRAK4 remaining, read-out: Dmax. In short, it runs like this: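 Degradation was quantified by luminescence after adding lytic detection reagent containing LgBiT to HiBiT-tagged Jurkat cells (polyclonal or clone 8D5). Cells were treated 4 h at 32 °C across 11 concentrations from 10 μM to 0.1 nM final. Four-parameter curve fitting of % IRAK4 remaining versus DMSO gave DC50 and Dmax.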
On the technique in general: The HiBiT peptide binds its large partner to form an active luciferase.

For the molecule `N#Cc1cnn2c(-c3cc(NC4CCOCC4)c(-c4nnc(N5CCN(C(=O)CN6CCc7cc(C8CCC(=O)NC8=O)ccc7C6)CC5)s4)cn3)ccc2c1` (racemic) [Example 66, rac-7-(5-{5-[4-(2-{6-[(3R)-2,6-dioxopiperidin-3-yl]-1,2,3,4-tetrahydroisoquinolin-2-yl}acetyl)piperazin-1-yl]-1,3,4-thiadiazol-2-yl}-4-[(oxan-4-yl)amino]pyridin-2-yl)pyrrolo[1,2-b]pyridazine-3-carbonitrile], the DC50 (as a rule, the concentration giving 50% degradation) came out at 8 nM and the Dmax (in general, the greatest extent of degradation seen) amounted to 110%.

As for `N#Cc1cnn2c(-c3cc(NC4CC4)c(-c4nnc(N5CCN(CC6CCN(c7ccc(C8CCC(=O)NC8=O)cn7)CC6)CC5)s4)cn3)ccc2c1` (racemic) [Example 67, rac-7-[4-(cyclopropylamino)-5-(5-{4-[(1-{5-[(3R)-2,6-dioxopiperidin-3-yl]pyridin-2-yl}piperidin-4-yl)methyl]piperazin-1-yl}-1,3,4-thiadiazol-2-yl)pyridin-2-yl]pyrrolo[1,2-b]pyridazine-3-carbonitrile], the half-maximal degradation concentration (DC50) amounted to 38 nM and the Dmax was found to be 85%.

For `CCNc1cc(-c2ccc3cc(C#N)cnn23)ncc1-c1nnc(N2CCN(CC3CCN(c4ccc(C5CCC(=O)NC5=O)cn4)CC3)CC2)s1` (racemic) [Example 68, rac-7-[5-(5-{4-[(1-{5-[(3R)-2,6-dioxopiperidin-3-yl]pyridin-2-yl}piperidin-4-yl)methyl]piperazin-1-yl}-1,3,4-thiadiazol-2-yl)-4-(ethylamino)pyridin-2-yl]pyrrolo[1,2-b]pyridazine-3-carbonitrile], it took 187 nM to reach half-maximal degradation (DC50) and the Dmax came to 103%.

As to `CCNc1cc(-c2ccc3cc(C#N)cnn23)ncc1-c1nnc(N2CCN(CC3CCN(c4ccc(C5CCC(=O)NC5=O)cn4)CC3)CC2)o1` (racemic) [Example 69, rac-7-[5-(5-{4-[(1-{5-[(3R)-2,6-dioxopiperidin-3-yl]pyridin-2-yl}piperidin-4-yl)methyl]piperazin-1-yl}-1,3,4-oxadiazol-2-yl)-4-(ethylamino)pyridin-2-yl]pyrrolo[1,2-b]pyridazine-3-carbonitrile], the 50% degradation concentration (DC50) was 1000 nM and the Dmax was 84%.

Regarding `CCNc1cc(-c2ccc3cc(C#N)cnn23)ncc1-c1nnc(N2CCN(CC3CCN(c4ccc(C5CCC(=O)NC5=O)cc4)CC3)CC2)s1` (racemic) [Example 70, rac-7-[5-(5-{4-[(1-{4-[(3R)-2,6-dioxopiperidin-3-yl]phenyl}piperidin-4-yl)methyl]piperazin-1-yl}-1,3,4-thiadiazol-2-yl)-4-(ethylamino)pyridin-2-yl]pyrrolo[1,2-b]pyridazine-3-carbonitrile], the half-maximal degradation concentration (DC50) was determined as 42 nM and the Dmax came out at 112%.

Turning to `CC(C)Nc1cc(-c2ccc3cc(C#N)cnn23)ncc1-c1nnc(N2CC3CCC(C2)N3CC2CCN(c3ccc([C@H]4CCC(=O)NC4=O)cc3)CC2)s1` (racemic) [Example 72, rac-7-[5-(5-{8-[(1-{4-[(3R)-2,6-dioxopiperidin-3-yl]phenyl}piperidin-4-yl)methyl]-3,8-diazabicyclo[3.2.1]octan-3-yl}-1,3,4-thiadiazol-2-yl)-4-[(propan-2-yl)amino]pyridin-2-yl]pyrrolo[1,2-b]pyridazine-3-carbonitrile], half-maximal degradation (DC50) was put at 45 nM and the Dmax was 60%.

For the molecule `N#Cc1cnn2c(-c3cc(NC4CCOCC4)c(-c4nnc(N5CCN(C6CC7(CCN(c8ccc(C9CCC(=O)NC9=O)cn8)CC7)C6)CC5)s4)cn3)ccc2c1` (racemic) [Example 74, rac-7-(5-{5-[4-(7-{5-[(3R)-2,6-dioxopiperidin-3-yl]pyridin-2-yl}-7-azaspiro[3.5]nonan-2-yl)piperazin-1-yl]-1,3,4-thiadiazol-2-yl}-4-[(oxan-4-yl)amino]pyridin-2-yl)pyrrolo[1,2-b]pyridazine-3-carbonitrile], the 50% degradation concentration (DC50) is 23 nM and the Dmax stood at 71%.

For the molecule `C[C@H](C#N)Nc1cc(-c2ccc3cc(C#N)cnn23)ncc1-c1nnc(N2CCN(CC3CCN(c4ccc(C5CCC(=O)NC5=O)cn4)CC3)CC2)s1` (mixture of isomers) [Example 75, 7-(4-{[(1R)-1-cyanoethyl]amino}-5-(5-{4-[(1-{5-[(3RS)-2,6-dioxopiperidin-3-yl]pyridin-2-yl}piperidin-4-yl)methyl]piperazin-1-yl}-1,3,4-thiadiazol-2-yl)pyridin-2-yl)pyrrolo[1,2-b]pyridazine-3-carbonitrile], it took 9 nM to reach half-maximal degradation (DC50) and the Dmax is 111%.

As for `CC1(Nc2cc(-c3ccc4cc(C#N)cnn34)ncc2-c2nnc(N3CCN(CC4CCN(c5ccc(C6CCC(=O)NC6=O)cc5)CC4)CC3)s2)COC1` (racemic) [Example 76, rac-7-[5-(5-{4-[(1-{4-[(3R)-2,6-dioxopiperidin-3-yl]phenyl}piperidin-4-yl)methyl]piperazin-1-yl}-1,3,4-thiadiazol-2-yl)-4-[(3-methyloxetan-3-yl)amino]pyridin-2-yl]pyrrolo[1,2-b]pyridazine-3-carbonitrile], the half-maximal degradation concentration (DC50) stood at 23 nM and the Dmax is 111%.

`N#Cc1cnn2c(-c3cc(NC4CC4)c(-c4nnc(N5CCN(CC6CCN(c7ccc(C8CCC(=O)NC8=O)cc7)CC6)CC5)s4)cn3)ccc2c1` (racemic) [Example 77, rac-7-[4-(cyclopropylamino)-5-(5-{4-[(1-{4-[(3R)-2,6-dioxopiperidin-3-yl]phenyl}piperidin-4-yl)methyl]piperazin-1-yl}-1,3,4-thiadiazol-2-yl)pyridin-2-yl]pyrrolo[1,2-b]pyridazine-3-carbonitrile]: it took 53 nM to reach half-maximal degradation (DC50) and the Dmax was determined as 90%.

As to `CNc1cc(-c2ccc3cc(C#N)cnn23)ncc1-c1nnc(N2CCN(CC3CCN(c4ccc(C5CCC(=O)NC5=O)cc4)CC3)CC2)s1` (racemic) [Example 79, rac-7-[5-(5-{4-[(1-{4-[(3R)-2,6-dioxopiperidin-3-yl]phenyl}piperidin-4-yl)methyl]piperazin-1-yl}-1,3,4-thiadiazol-2-yl)-4-(methylamino)pyridin-2-yl]pyrrolo[1,2-b]pyridazine-3-carbonitrile], the DC50 worked out at 21 nM and the Dmax worked out at 115%.

In the case of `CNc1cc(-c2ccc3cc(C#N)cnn23)ncc1-c1nnc(C2CCN(CC3CCN(c4ccc(C5CCC(=O)NC5=O)cn4)CC3)CC2)s1` (racemic) [Example 81, rac-7-[5-(5-{1-[(1-{5-[(3R)-2,6-dioxopiperidin-3-yl]pyridin-2-yl}piperidin-4-yl)methyl]piperidin-4-yl}-1,3,4-thiadiazol-2-yl)-4-(methylamino)pyridin-2-yl]pyrrolo[1,2-b]pyridazine-3-carbonitrile], the 50% degradation concentration (DC50) came to 10 nM and the Dmax came out at 116%.

With `CN(CC1CCN(c2ccc([C@@H]3CCC(=O)NC3=O)cn2)CC1)[C@H]1CC[C@H](c2nnc(-c3cnc(-c4ccc5cc(C#N)cnn45)cc3NC3CCOCC3)s2)CC1` (racemic) [Example 82, 7-{4-[(oxan-4-yl)amino]-5-{5-[(1r,4r)-4-{[(1-{5-[(3RS)-2,6-dioxopiperidin-3-yl]pyridin-2-yl}piperidin-4-yl)methyl](methyl)amino}cyclohexyl]-1,3,4-thiadiazol-2-yl}pyridin-2-yl}pyrrolo[1,2-b]pyridazine-3-carbonitrile], it took 8 nM to reach half-maximal degradation (DC50) and the Dmax is 114%.

Turning to `N#Cc1cnn2c(-c3cc(NC4CCOCC4)c(-c4nnc(N5CC6CCC(C5)N6CC5CCN(c6ccc([C@H]7CCC(=O)NC7=O)cc6)CC5)s4)cn3)ccc2c1` (racemic) [Example 85, rac-7-[5-(5-{8-[(1-{4-[(3R)-2,6-dioxopiperidin-3-yl]phenyl}piperidin-4-yl)methyl]-3,8-diazabicyclo[3.2.1]octan-3-yl}-1,3,4-thiadiazol-2-yl)-4-[(oxan-4-yl)amino]pyridin-2-yl]pyrrolo[1,2-b]pyridazine-3-carbonitrile], the DC50 worked out at 25 nM and the Dmax was 73%.

As for `N#Cc1cnn2c(-c3cc(N[C@H]4CCOC4)c(-c4nnc(N5CC6CCC(C5)N6CC5CCN(c6ccc(C7CCC(=O)NC7=O)cn6)CC5)s4)cn3)ccc2c1` (mixture of isomers) [Example 87, 7-[5-(5-{8-[(1-{5-[(3RS)-2,6-dioxopiperidin-3-yl]pyridin-2-yl}piperidin-4-yl)methyl]-3,8-diazabicyclo[3.2.1]octan-3-yl}-1,3,4-thiadiazol-2-yl)-4-{[(3S)-oxolan-3-yl]amino}pyridin-2-yl]pyrrolo[1,2-b]pyridazine-3-carbonitrile], half-maximal degradation (DC50) was put at 47 nM and the Dmax is 61%.

Take `N#Cc1cnn2c(-c3cc(NC4CCOCC4)c(-c4nnc(N5CC6(CCN(CC7CCN(c8ccc(C9CCC(=O)NC9=O)cn8)CC7)CC6)C5)s4)cn3)ccc2c1` (racemic) [Example 88, rac-7-[5-(5-{7-[(1-{5-[(3R)-2,6-dioxopiperidin-3-yl]pyridin-2-yl}piperidin-4-yl)methyl]-2,7-diazaspiro[3.5]nonan-2-yl}-1,3,4-thiadiazol-2-yl)-4-[(oxan-4-yl)amino]pyridin-2-yl]pyrrolo[1,2-b]pyridazine-3-carbonitrile]: the DC50 is 11 nM and the Dmax amounted to 115%.

The values are drawn from patent publication US12570662B2, “Substituted pyrrolo[1,2-b]pyridazines as bifunctional degraders of interleukin-1 receptor-associated kinases” (Nurix Therapeutics, Inc., priority 2021, dated 2026).
